Results on 23 compounds are retold here after patent US9730914B2, “3,5-diaminopyrazole kinase inhibitors” (Axikin Pharmaceuticals, Inc., priority 2014, dated 2017).

Assay [1] addresses T1, kinase domain protein of RC kinase (RCK) (Homo sapiens, UniProt Q56UN5).
T1 construct: made in house; host or cells: E. coli BL21-derived host (T7 phage) or HEK-293
T1 sequence (Q56UN5 1061-1324 limits assumed): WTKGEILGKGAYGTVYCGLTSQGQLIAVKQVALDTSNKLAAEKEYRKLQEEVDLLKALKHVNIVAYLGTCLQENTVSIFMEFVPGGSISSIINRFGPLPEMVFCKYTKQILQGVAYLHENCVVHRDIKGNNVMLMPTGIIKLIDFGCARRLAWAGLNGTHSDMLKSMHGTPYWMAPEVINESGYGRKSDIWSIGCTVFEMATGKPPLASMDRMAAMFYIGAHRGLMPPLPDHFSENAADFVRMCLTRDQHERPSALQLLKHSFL
Kind of assay: Kinase competition binding assay (Kd, qPCR readout), RC kinase. The settings on record: Kd class, read-out: RCK Activity Level. In short, it runs like this: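 Competition binding: DNA-tagged kinase (T7 phage or HEK-293-expressed) plus immobilized biotinylated ligand beads and compound, 1 h at room temperature, 1% DMSO. Bead-bound kinase eluted and quantified by qPCR. Kd from 11-point 3-fold dilution, top 30,000 nM, retested lower if below 0.5 nM.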

For another assay, the target named is T2, JAK2 (Homo sapiens, UniProt O60674).
T2 construct: made in house; host or cells: E. coli BL21-derived host (T7 phage) or HEK-293
T2 sequence (O60674 840-1132 limits assumed): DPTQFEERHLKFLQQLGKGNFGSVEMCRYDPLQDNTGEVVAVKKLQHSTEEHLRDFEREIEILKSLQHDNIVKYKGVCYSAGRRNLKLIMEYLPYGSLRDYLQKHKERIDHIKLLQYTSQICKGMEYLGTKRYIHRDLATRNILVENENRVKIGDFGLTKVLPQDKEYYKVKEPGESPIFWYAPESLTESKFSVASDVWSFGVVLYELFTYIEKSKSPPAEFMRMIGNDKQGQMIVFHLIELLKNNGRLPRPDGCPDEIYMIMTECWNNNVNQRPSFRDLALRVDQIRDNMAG
Kind of assay: Kinase competition binding assay (Kd, qPCR readout), JAK2. The conditions noted are these: for Kd: Kd class, JAK2, read-out: JAK2 Activity Level; for RCK:JAK2 selectivity ratio: ratio Kd (JAK2): Kd(RCK). In short, it runs like this:
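Competition binding: DNA-tagged kinase (T7 phage or HEK-293-expressed), immobilized biotinylated ligand beads and compound in SeaBlock/PBS/Tween/DTT buffer, 1 hour at room temperature; bound kinase eluted and quantified by qPCR. Kd from 11-point 3-fold dilution, top 30,000 nM typically, final DMSO 1%.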
A general note: Real-time PCR tracks product formation cycle by cycle.

A further assay has as its target T3, JAK3 (Homo sapiens, UniProt P52333).
T3 construct: made in house; host or cells: E. coli BL21-derived host (T7 phage) or HEK-293
Nature of the assay: Kinase competition binding assay (Kd, qPCR readout), JAK3. The settings on record: for Kd: Kd class, JAK3, read-out: JAK3 Activity Level; for RCK:JAK3 selectivity ratio: ratio Kd (JAK3): Kd (RCK). In short, it runs like this: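 Kd values were derived from 11-point, 3-fold compound series at 1% DMSO, usually topping at 30,000 nM, with retesting from a lower top when under 0.5 nM. It competed with bead-immobilized ligand for 1 h at room temperature, and the captured kinase was measured by qPCR after elution.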

Some results are limits rather than exact numbers.

T3 sequence (P52333 811-1124 limits assumed): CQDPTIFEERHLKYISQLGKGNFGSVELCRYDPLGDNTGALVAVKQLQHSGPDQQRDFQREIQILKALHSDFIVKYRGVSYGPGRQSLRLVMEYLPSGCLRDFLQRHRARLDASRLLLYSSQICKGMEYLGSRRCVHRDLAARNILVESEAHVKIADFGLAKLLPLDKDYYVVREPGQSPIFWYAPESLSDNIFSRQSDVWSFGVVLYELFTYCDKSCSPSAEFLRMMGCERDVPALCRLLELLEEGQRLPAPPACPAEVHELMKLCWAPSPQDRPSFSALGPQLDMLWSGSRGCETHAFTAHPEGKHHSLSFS

Take `CC(C)N1CCN(c2ccc(Nc3n[nH]c(NCc4ccc(O)cc4)c3C(N)=O)cc2)CC1` [reference compound]: the Kd in assay [1] is below 50 nM. On JAK2, the Kd is below 50 nM and the “RCK:JAK2 selectivity ratio” value is recorded as “C (C represents 1<Kd (JAK2): Kd (RCK)<10)”. For the same compound, at JAK3, the Kd lay in the range of 50 to 100 nM and the “RCK:JAK3 selectivity ratio” value is “B (B represents 10<Kd (JAK3): Kd (RCK)<100)”.

With `NC(=O)c1c(Nc2ccc(N3CCOCC3)c(Cl)c2)n[nH]c1NCc1ccc(O)cc1` [reference compound], in assay [1], the Kd was below 50 nM. For the same compound, at JAK2, the Kd is below 50 nM and the “RCK:JAK2 selectivity ratio” value is reported as “D (D represents Kd(JAK2): Kd (RCK)<1)”. In addition, at JAK3, the Kd is below 50 nM and the “RCK:JAK3 selectivity ratio” value is on record as “C (C represents 1<Kd (JAK3): Kd (RCK)<10)”.

For the compound `C[C@@H]1CC(c2ccc(Nc3n[nH]c(NCc4ccc(O)cc4)c3C(N)=O)cn2)C[C@H](C)O1` (some centres unmarked) [reference compound], the Kd in assay [1] is below 50 nM. Further, at JAK2, the Kd was below 50 nM and the “RCK:JAK2 selectivity ratio” value is on record as “C (C represents 1<Kd (JAK2): Kd (RCK)<10)”. At JAK3, the Kd was below 50 nM and the “RCK:JAK3 selectivity ratio” value is “C (C represents 1<Kd (JAK3): Kd (RCK)<10)”.

On to `NC(=O)c1c(Nc2ccc(N3CCCCC3)cc2)n[nH]c1NCc1ccc(O)cc1` [reference compound], for which the Kd in assay [1] is below 50 nM. For the same compound, at JAK2, the Kd was below 50 nM and the “RCK:JAK2 selectivity ratio” value is recorded as “C (C represents 1<Kd (JAK2): Kd (RCK)<10)”. Moreover, on JAK3, the Kd was below 50 nM and the “RCK:JAK3 selectivity ratio” value is recorded as “C (C represents 1<Kd (JAK3): Kd (RCK)<10)”.

As for `Cc1cc(Nc2n[nH]c(NCc3ccc(O)cc3)c2C(N)=O)ccc1N1CCN(C)CC1` [reference compound], the Kd in assay [1] was below 50 nM. Moreover, on JAK2, the Kd is below 50 nM and the “RCK:JAK2 selectivity ratio” value is “C (C represents 1<Kd (JAK2): Kd (RCK)<10)”. At JAK3, the Kd was below 50 nM and the “RCK:JAK3 selectivity ratio” value was “C (C represents 1<Kd (JAK3): Kd (RCK)<10)”.

With `Cc1cc(Nc2n[nH]c(NCc3ccc(O)cc3)c2C(N)=O)ccc1N1CCCCC1` [reference compound], the Kd in assay [1] is below 50 nM. Besides, on JAK2, the Kd was below 50 nM and the “RCK:JAK2 selectivity ratio” value is recorded as “C (C represents 1<Kd (JAK2): Kd (RCK)<10)”. Further, on JAK3, the Kd lay within 50 to 100 nM and the “RCK:JAK3 selectivity ratio” value is “C (C represents 1<Kd (JAK3): Kd (RCK)<10)”.

As for `NC(=O)c1c(Nc2ccc(N3CCN(Cc4ccccc4)CC3)cc2)n[nH]c1NCc1ccc(O)cc1` [reference compound], the Kd in assay [1] is below 50 nM. For the same compound, at JAK2, the Kd was below 50 nM and the “RCK:JAK2 selectivity ratio” value is given as “D (D represents Kd(JAK2): Kd (RCK)<1)”. Further, on JAK3, the Kd was below 50 nM and the “RCK:JAK3 selectivity ratio” value is “C (C represents 1<Kd (JAK3): Kd (RCK)<10)”.

As for `NC(=O)c1c(Nc2ccc(N3CCS(=O)(=O)CC3)cc2)n[nH]c1NCc1ccc(O)cc1` [reference compound], in assay [1], the Kd is below 50 nM. Besides, on JAK2, the Kd is below 50 nM and the “RCK:JAK2 selectivity ratio” value was “D (D represents Kd(JAK2): Kd (RCK)<1)”. Besides, at JAK3, the Kd is below 50 nM and the “RCK:JAK3 selectivity ratio” value is “D (D represents Kd (JAK3): Kd(RCK)<1)”.

`NC(=O)c1c(Nc2ccc(N3CCCCC3)cn2)n[nH]c1NCc1ccc(O)cc1` [reference compound]: the Kd (in assay [1]; on JAK2; at JAK3) was below 50 nM throughout. Moreover, the “RCK:JAK2 selectivity ratio” value on JAK2 is “D (D represents Kd(JAK2): Kd (RCK)<1)”. At JAK3, the “RCK:JAK3 selectivity ratio” value is reported as “D (D represents Kd (JAK3): Kd(RCK)<1)”.

As to `NC(=O)c1c(Nc2ccc(N3CCC(Cl)CC3)cc2)n[nH]c1NCc1ccc(O)cc1` [reference compound], the Kd (in assay [1]; on JAK2; at JAK3) was below 50 nM in each case. The “RCK:JAK2 selectivity ratio” value at JAK2 is “D (D represents Kd(JAK2): Kd (RCK)<1)”. For the same compound, the “RCK:JAK3 selectivity ratio” value at JAK3 is listed as “C (C represents 1<Kd (JAK3): Kd (RCK)<10)”.

In the case of `NC(=O)c1c(Nc2ccc(CN3CCCC3)cc2)n[nH]c1NCc1ccc(O)cc1` [reference compound], in assay [1], the Kd was below 50 nM. For the same compound, on JAK2, the Kd was below 50 nM and the “RCK:JAK2 selectivity ratio” value was “D (D represents Kd(JAK2): Kd (RCK)<1)”. Moreover, on JAK3, the Kd is below 50 nM and the “RCK:JAK3 selectivity ratio” value is listed as “D (D represents Kd (JAK3): Kd(RCK)<1)”.

As for `CN(C)C1CCN(c2ccc(Nc3n[nH]c(NCc4ccc(O)cc4)c3C(N)=O)cc2)CC1` [reference compound], the Kd (in assay [1]; on JAK2; at JAK3) was below 50 nM each time. The “RCK:JAK2 selectivity ratio” value on JAK2 is given as “D (D represents Kd(JAK2): Kd (RCK)<1)”. Also, the “RCK:JAK3 selectivity ratio” value at JAK3 was “D (D represents Kd (JAK3): Kd(RCK)<1)”.

For `NC(=O)c1c(Nc2ccc(N3CCOCC3)c(F)c2)n[nH]c1NCc1ccc(O)cc1` [reference compound], the Kd (in assay [1]; at JAK2; at JAK3) was below 50 nM in each case.

Regarding `NC(=O)c1c(Nc2ccc(-c3cnco3)cc2)n[nH]c1NCc1ccc(O)cc1` [reference compound], the Kd in assay [1] was below 50 nM. Besides, at JAK2, the Kd is below 50 nM and the “RCK:JAK2 selectivity ratio” value is on record as “C (C represents 1<Kd (JAK2): Kd (RCK)<10)”. In addition, on JAK3, the Kd is below 50 nM and the “RCK:JAK3 selectivity ratio” value is recorded as “C (C represents 1<Kd (JAK3): Kd (RCK)<10)”.

With `NC(=O)c1c(Nc2ccc(N3CCN(C(=O)N4CCOCC4)CC3)cc2)n[nH]c1NCc1ccc(O)cc1` [reference compound], the Kd (in assay [1]; on JAK2; at JAK3) was below 50 nM throughout. The “RCK:JAK2 selectivity ratio” value at JAK2 is reported as “D (D represents Kd(JAK2): Kd (RCK)<1)”. For the same compound, at JAK3, the “RCK:JAK3 selectivity ratio” value is given as “C (C represents 1<Kd (JAK3): Kd (RCK)<10)”.

In the case of `CC(=O)Nc1cccc(Nc2n[nH]c(NCc3ccc(O)cc3)c2C(N)=O)c1` [reference compound], in assay [1], the Kd was below 50 nM. Also, on JAK2, the Kd is below 50 nM and the “RCK:JAK2 selectivity ratio” value is on record as “D (D represents Kd(JAK2): Kd (RCK)<1)”. At JAK3, the Kd is below 50 nM and the “RCK:JAK3 selectivity ratio” value is “D (D represents Kd (JAK3): Kd(RCK)<1)”.

As to `CN1CCN(c2ccc(Nc3n[nH]c(NCc4ccc(O)cc4)c3C(N)=O)cc2Cl)CC1` [reference compound], the Kd in assay [1] was below 50 nM. In addition, at JAK2, the Kd was below 50 nM and the “RCK:JAK2 selectivity ratio” value is listed as “D (D represents Kd(JAK2): Kd (RCK)<1)”. On JAK3, the Kd was below 50 nM and the “RCK:JAK3 selectivity ratio” value is “C (C represents 1<Kd (JAK3): Kd (RCK)<10)”.

As to `NC(=O)c1c(Nc2ccc(F)cc2)n[nH]c1NCc1ccc(O)cc1` [reference compound], in assay [1], the Kd was below 50 nM. Also, at JAK2, the Kd is below 50 nM and the “RCK:JAK2 selectivity ratio” value was “D (D represents Kd(JAK2): Kd (RCK)<1)”. At JAK3, the Kd is below 50 nM and the “RCK:JAK3 selectivity ratio” value was “D (D represents Kd (JAK3): Kd(RCK)<1)”.

As for `N#Cc1cccc(Nc2n[nH]c(NCc3ccc(O)cc3)c2C(N)=O)c1` [reference compound], the Kd in assay [1] was in the range of 50 to 100 nM. For the same compound, at JAK2, the Kd was below 50 nM and the “RCK:JAK2 selectivity ratio” value is recorded as “D (D represents Kd(JAK2): Kd (RCK)<1)”. For the same compound, at JAK3, the Kd is below 50 nM and the “RCK:JAK3 selectivity ratio” value is “D (D represents Kd (JAK3): Kd(RCK)<1)”.

For `NC(=O)c1c(Nc2ccc(N3CCN(c4ncccn4)CC3)cc2)n[nH]c1NCc1ccc(O)cc1` [reference compound], the Kd in assay [1] was below 50 nM. Also, on JAK2, the Kd is below 50 nM and the “RCK:JAK2 selectivity ratio” value is “C (C represents 1<Kd (JAK2): Kd (RCK)<10)”. For the same compound, on JAK3, the Kd is below 50 nM and the “RCK:JAK3 selectivity ratio” value was “C (C represents 1<Kd (JAK3): Kd (RCK)<10)”.

In the case of `NC(=O)c1c(Nc2ccc(CN3CCCCC3)cc2)n[nH]c1NCc1ccc(O)cc1` [reference compound], the Kd (in assay [1]; at JAK2; on JAK3) was below 50 nM each time. For the same compound, the “RCK:JAK2 selectivity ratio” value at JAK2 is on record as “D (D represents Kd(JAK2): Kd (RCK)<1)”. The “RCK:JAK3 selectivity ratio” value on JAK3 is reported as “D (D represents Kd (JAK3): Kd(RCK)<1)”.

Take `NC(=O)c1c(Nc2ccc(N3CCSCC3)cc2)n[nH]c1NCc1ccc(O)cc1` [reference compound]: the Kd in assay [1] is below 50 nM. At JAK2, the Kd was below 50 nM and the “RCK:JAK2 selectivity ratio” value is listed as “D (D represents Kd(JAK2): Kd (RCK)<1)”. On JAK3, the Kd was below 50 nM and the “RCK:JAK3 selectivity ratio” value is given as “C (C represents 1<Kd (JAK3): Kd (RCK)<10)”.

As to `NC(=O)c1c(Nc2ccc(N)cc2)n[nH]c1NCc1ccc(O)cc1` [reference compound], the Kd in assay [1] fell in the range of 100 to 1000 nM. Further, on JAK2, the Kd lay in the range of 50 to 100 nM and the “RCK:JAK2 selectivity ratio” value is given as “D (D represents Kd(JAK2): Kd (RCK)<1)”. Further, on JAK3, the Kd lay in the range of 100 to 1000 nM and the “RCK:JAK3 selectivity ratio” value was “D (D represents Kd (JAK3): Kd(RCK)<1)”.
